Results published in ChEMBL document CHEMBL1150729, “Constituents of Paramichelia baillonii: a new antitumor germacranolide alkaloid” (1987).
In brackets after ≈: the same amount, converted by molar mass. Activity calls are given as the source filed them. No cut-off for these calls is given here.

Legend:
Type in all cases: functional
KB = assay: Cytotoxicity against human KB cells; conditions: read-out: ED50 (the source's name)
[1] = (§1) Cytotoxicity against human 9KB cells; conditions: read-out: ED50 (the source's name)
9KB = assay: as §1
[2] = Cytotoxicity against human Laryngeal epidermoid carcinoma cells; conditions: read-out: ED50 (the source's name)

With C/C1=C\CC[C@@]2(C)O[C@H]2[C@H]2OC(=O)[C@@H](CNC[C@@H]3C(=O)O[C@H]4[C@H]3CC/C(C)=C/CC[C@@]3(C)O[C@@H]43)[C@@H]2CC1 the EC50 (KB) was 0.6 µg/mL (≈ 1.17 µM).

O=C1c2ccccc2-c2c3c(cc4ccnc1c24)OCO3 [LIRIODENINE] showed an EC50 [1] of 1.6 µg/mL (≈ 5.81 µM).

In the case of C/C1=C\CC[C@@]2(C)O[C@H]2[C@H]2OC(=O)[C@@H](C)[C@@H]2CC1, the Activity (9KB) is reported as “inactive”.

With C=C1C(=O)O[C@@H]2C3O[C@]3(C)CC/C=C(\C)CC[C@@H]12 (stereo not given in full) the EC50 [2] was 0.76 µg/mL (≈ 3.06 µM) and the EC50 [1] was 0.45 µg/mL (≈ 1.81 µM).
